{
  "source": "patent US20190375791A1",
  "about": "“NEW D-CONFIGURED CATESLYTIN PEPTIDE” (priority 2016, published 2019)",
  "key": {"Candida albicans": {"system": "Candida albicans", "test": "Broth dilution assay (Example 2)", "assay_type": "cell-based", "details": "Ca(OH)2 0.85 mg/mL alone, or combined with ½ MIC of D-CTL", "procedure": "(§1) Enterococcus faecalis (CCM 2541) was obtained from the Czechoslovac Collection of Microorganisms (Czech Republic) Bacteria were cultured in Anaerobe Basal Broth (Oxoid, France) at 37° C. in anaerobic conditions. Candida albicans (ATCC© 10231™) was cultured in Sabouraud medium (BD, France) supplemented with tetracycline (10 μg/mL) and cefotaxime (10 μg/mL).\n(§2) An overnight culture of each pathogen was diluted (OD600 nm=0.001) and incubated at 37° C. in 96-plates in the presence of different concentrations of antimicrobial agents. When testing Ca(OH)2, the pH of the solution was measured with by pH meter. (CyberScan pH 510©, Eutech, France). After 24 h incubation, the OD620 nm was evaluated with a spectrophotometer (Multikan EX, ThermoScientific, France). Each assay was done at least in triplicate. For each set of assay, the standard deviation was determined."}, "Fusobacterium nucleatum": {"system": "Fusobacterium nucleatum", "test": "Broth dilution assay (Example 2)", "assay_type": "cell-based", "procedure": "as §1, §2"}, "Prevotella intermedia": {"system": "Prevotella intermedia", "test": "Broth dilution assay (Example 2)", "assay_type": "cell-based", "details": "Ca(OH)2 0.85 mg/mL alone, or combined with ½ MIC of D-CTL", "procedure": "as §1, §2"}, "HGF-1 cells": {"system": "HGF-1 cells", "test": "MTT cytotoxicity assay on HGF-1 cells (Example 2)", "assay_type": "cell-based, human", "procedure": "The mammalian cell line HGF-1 (ATCC® CRL-2014™) was commercially obtained by ATCC and cultured at 37° C. and 5% CO2 in Dulbecco's Modified Eagle's Medium (Thermo Fisher Scientific, France) supplemented with 10% (v/v) bovine calf serum (Dutscher, France) and 1% (v/v) penicillin-streptomycin (Thermo Fisher Scientific, France).\nThe cytotoxicity of the antimicrobial agents was examined by MTT [3(4,5-dimethylthiazol-2-yl)-2,5 diphenyl tetrazolium bromide] assays (Scientific Life—France) against HGF-1 cells. Cells were incubated for 24 h in a 96-wells plate before being treated with various concentrations of Ca(OH)2 alone or supplemented with the peptide. As a control, cells were plated in each 96-wells without being treated. After 24 h, 48 h and 72 h incubation, cells were carefully washed with PBS and treated with MTT at a final concentration of 0.25 mg/mL. HGF-1 cells were then incubated for 2 h at 37° C. before being lysed with isopropanol/HCL (48:2, v/v). Cell viability was assessed by reading the OD540 nm with a Multiskan EX microplate spectrophotometer (Thermo Fisher Scientific, France). The OD540 nm of each well was then compared to the […] of the control. For each set of experiments, standard deviations were determined."}, "Enterococcus faecalis": {"system": "Enterococcus faecalis", "assay_type": "cell-based", "details": "saturated solution of Ca(OH)2 (1.7 mg/mL, pH 9)", "procedure": "as §1, §2"}, "Parvimonas micra": {"system": "Parvimonas micra", "test": "Broth dilution assay (Example 2)", "assay_type": "cell-based", "details": "Ca(OH)2 0.85 mg/mL alone, or combined with ½ MIC of D-CTL"}, "[1]": {"details": "literature (Schmidtchen et al., 2002); cited from earlier work"}},
  "data": [
    {"compound": "[Ca+2].[OH-].[OH-]", "note": "[Ca(OH)2]", "values": [
      {"measurement": "inhibition of C. albicans growth", "setting": "Candida albicans", "value": "87%±2%"},
      {"measurement": "inhibition of F. nucleatum growth", "setting": "Fusobacterium nucleatum; Ca(OH)2 0.85 mg/mL alone, or combined with ½ MIC of D-CTL", "value": "30%±10%"},
      {"measurement": "inhibition of the growth of F. nucleatum", "setting": "Fusobacterium nucleatum; saturated solution of Ca(OH)2 (1.7 mg/mL, pH 9)", "value": "100% (±1%)"},
      {"measurement": "inhibition of P. intermedia growth", "setting": "Prevotella intermedia", "value": "77%±6%"},
      {"measurement": "toxicity on HGF-1", "setting": "HGF-1 cells; Ca(OH)2 0.425 g/L, after three days incubation", "value": "below 4% (±7%)"},
      {"measurement": "toxicity on HGF-1", "setting": "HGF-1 cells; Ca(OH)2 0.85 g/L, after three days incubation", "value": "below 4% (±7%)"},
      {"measurement": "toxicity on HGF-1", "setting": "HGF-1 cells; saturated solution of Ca(OH)2 (1.7 mg/mL), after 24 h", "value": "20% (±7%)"},
      {"measurement": "toxicity on HGF-1", "setting": "HGF-1 cells; saturated solution of Ca(OH)2 (1.7 mg/mL), after 72 h incubation", "value": "50% (±6%)"},
      {"measurement": "toxicity on HGF-1", "setting": "HGF-1 cells; saturated solution of Ca(OH)2 (1.7 mg/mL), second of three values, time not clearly printed", "value": "14% (±11%)"},
      {"measurement": "inhibition rate of E. faecalis growth", "setting": "Enterococcus faecalis", "value": "58% (±5%)"},
      {"measurement": "inhibition of P. micra growth", "setting": "Parvimonas micra", "value": "15%±6%"}
    ]},
    {"compound": "LL-37", "values": [
      {"measurement": "degradation by the virulence factors of E. faecalis", "setting": "[1]", "value": "completely degraded"}
    ]}
  ]
}
